Assay results: article PMC7618597, “Dual Nurr1/RXR agonism of valerenic acid and synthetic mimetics enables dimer-selective Nurr1 modulation” (ACS medicinal chemistry letters, 2025)
pEC50: −log10 of the molar value.

How the values were obtained:
RXRβ = target: T1, RXRβ (Homo sapiens, UniProt P28702); assay: Gal4-hybrid reporter gene assay, RXRβ; type: cell-based; conditions: Gal4-hybrid reporter gene assay; for pEC50: mean±S.E.M., n≥3
T1 construct: CMV-hRXRβ-LBD; expressed in transfected cells; host or cells: HEK293T
T1 sequence (P28702 296-529 limits assumed): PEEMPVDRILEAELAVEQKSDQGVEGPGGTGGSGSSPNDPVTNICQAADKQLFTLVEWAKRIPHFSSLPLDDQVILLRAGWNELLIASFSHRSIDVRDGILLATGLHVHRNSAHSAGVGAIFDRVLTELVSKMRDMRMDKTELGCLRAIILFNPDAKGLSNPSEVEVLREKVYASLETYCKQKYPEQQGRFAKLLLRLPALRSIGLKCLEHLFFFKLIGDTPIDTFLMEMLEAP
Experimental: modified Eagle’s medium (DMEM), high glucose supplemented with 10% fetal calf serum (FCS), sodium pyruvate (1 mM), penicillin (100 U/mL), and streptomycin (100 μg/mL) at 37 °C and 5% CO2 and seeded in 96-well plates (3×10^4 cells/well). After 24 h, the medium was changed to Opti-MEM without supplements, and the cells were transiently transfected using Lipofectamine LTX reagent (Invitrogen) according to the manufacturer’s protocol. Five hours after transfection, the cells were incubated with the test compounds in Opti-MEM supplemented with penicillin (100 U/mL), streptomycin (100 μg/mL), and 0.1% DMSO for 15 h before luciferase activity was measured using the Dual -Glo Luciferase Assay System (Promega) according to the manufacturer’s protocol on a Tecan Spark l uminometer (Tecan Deutschland GmbH, Germany). Firefly luminescence was divided by Renilla luminescence and multiplied by 1000, resulting in relative light units (RLU) to normalize for transfection efficiency and cell growth. Fold activation was obtained by dividing the mean RLU of a sample by the mean RLU of the untreated control. All samples were tested in at least three biologically independent experiments in duplicates. For dose –response curve fitting and calculation of EC50 values, the equation “[Agonist] vs. response – Variable slope (four parameters)” was used in GraphPad Prism (version 5.04, GraphPad Software, La Jolla, CA, USA). […] (10 μM, NR4A) and bexarotene (1 µM, NR2B) served as the positive control. […]
150 μM in the same buffer containing 2-4% DMSO) in 21–26 injections (1 × 1 μL and 20 × 4 to 25 × 4 μL) with an injection interval of 120 s. As control experiments, the test compounds were titrated to the buffer, and the buffer was titrated to the protein under otherwise identical conditions. The heat rates of the compound-Nurr1 LBD titrations were analyzed using NanoAnalyze software (TA Instruments, New Castle, DE) with an independent binding model.

Nurr1 homodimer = target: T2, Nurr1 homodimer (Homo sapiens, UniProt P43354); assay: Nurr1 LBD homodimerization assay (HTRF); type: biochemical; conditions: 30 μM, Tb3+-cryptate and sGFP labeled Nurr1 LBD
T2 construct: Tb^3+-cryptate labeled and sGFP-labeled Nurr1 LBD proteins; FRET acceptor consisted of sGFP-Nurr1 LBD
Experimental: To determine the molecular response of the Nurr1:RXR heterodimer on dual agonist binding, we employed homogenous time-resolved fluorescence resonance energy transfer (HTRF) based assays with labeled Nurr1 and RXR LBD proteins. Tb^3+-cryptate as streptavidin conjugate served as FRET donor and was coupled to biotinylated proteins. sGFP fusion proteins of the receptors of interest were used as FRET acceptors. Ligand effects on dimer formation were determined by titrating the sGFP-labeled dimer partner with a fixed concentration of the Tb^3+-labeled counterpart. […] The same effect was also observable for the natural product 1 (Figure S3).
Nurr1 dimerization assays (HTRF). Modulation of Nurr1 LBD homodimerization and heterodimerization of the LDBs of Nurr1 and RXRα was investigated by HTRF as reported previously4. Nurr1 LBD or RXRα LBD proteins labeled with sGFP were titrated against a fixed concentration of Tb3+-cryptate as streptavidin conjugate (Tb-SA) (610SATLF, Revvity) coupled to biotinylated Nurr1 LBD protein in the presence of test compounds at 30 µM or absence of compound as a negative control (apo). Assay solutions were prepared in buffer containing 25 mM HEPES pH 7.5, 150 mM KF, 5% (m/v) glycerol, 5 mM DTT, 0.1% (m/v) CHAPS and 1%
DMSO. The FRET donor complex was formed from biotinylated Nurr1 LBD (final concentration 0.188 nM) and Tb-SA (0.375 nM) and was kept constant. For the homodimerization assay, the FRET acceptor consisted of sGFP-Nurr1 LBD, which was titrated from 0.5 µM, while free sGFP was added to keep the total GFP content stable at 0.5 µM. […] Samples were equilibrated at room temperature for 2 h and fluorescence intensities (FI) after excitation at 340 nm were recorded at 520 nm for sGFP acceptor fluorescence and at 620 for Tb-SA donor fluorescence on a SPARK plate reader (Tecan Group Ltd.). […]
Evaluation of Nurr1-regulated gene expression. […] RNA concentration and purity were assessed using a NanoDrop One UV-vis spectrophotometer (Thermo Fisher Scientific) at 260/280 nm. […]

T2 sequence (P43354 360-595 limits assumed): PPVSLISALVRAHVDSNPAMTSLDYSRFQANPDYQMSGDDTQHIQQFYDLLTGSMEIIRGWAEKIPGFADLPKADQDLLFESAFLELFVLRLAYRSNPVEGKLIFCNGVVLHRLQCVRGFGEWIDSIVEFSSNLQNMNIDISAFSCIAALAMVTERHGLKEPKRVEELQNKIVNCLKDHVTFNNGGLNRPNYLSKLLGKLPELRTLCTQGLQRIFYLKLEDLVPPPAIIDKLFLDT

Structure (SMILES)	max. act. (RXR) β (RXRβ) [fold]	pEC50 (RXRβ)	Nurr1 homodimer formation (Nurr1 homodimer)
Cc1c2c(n(-c3ccc(CC(=O)O)cc3)c1C)CCC(F)(F)C2 [compound 2]	121±6	5.35	markedly diminished
Cc1c(C)n(-c2ccc(CC(=O)O)cc2)c2ccc(F)cc12 [compound 3]	103±6	6.22	markedly diminished
